Measurements: patent US20040029186A1, “Methods” (priority 2000, published 2004)

Biological target: T1, α4β1 integrin (Homo sapiens, UniProt P05556+P13612)
T1 construct: endogenous in cells; host or cells: cells of heparinised human whole blood
Test: Human whole blood cell adhesion to VCAM-1 coated magnetic beads, in vitro
Format: cell-based
Settings: 1 mM manganese chloride, 1 h room temperature, control samples without antibody
Method: Whole human or animal blood (e.g. rat, mouse, dog), was collected into sodium heparin (10 Units/ml blood).
487.5 μl aliquots of heparinised naive human or animal whole blood were dispensed into reaction tubes containing 7.5 μl biotinylated VCAM beads and either 5 μl of a solution of a compound believed to be an α4β1 integrin inhibitor or, as a control, 5 μl of the solvent used to dissolve the compound and either with or without 2 μl anti-α4 antibody. […]
After this time the wash procedure with chilled PBS was carried out three times before the addition of 130 μl per well of 2% Triton X-100 (Sigma T-9284) in distilled water to lyse the cells adhering to the beads. The beads were once again captured by the Dynal MPC® magnet, 100 μl aliquots of the solution from each well was transferred to a clean 96 well flat-bottomed plate and the fluorescence of each well measured using an Fmax fluorimeter (Molecular Devices, Crawley, West Sussex), excitation 485 nm, emission 538 nm. […]
The tubes were rotated on a windmill mixer for 2 h at 4° C. before addition of 500 μl ice cold PBS and placing on a Dynal MPC® magnet for 10 min to recover the beads. […] The fluorescence of each well was measured using a fluorimeter, excitation 485 nm, emission 538 nm. Results were expressed as a percentage of the fluorescence in control samples containing no antibody. […]

T1 sequence (P13612 34-1032): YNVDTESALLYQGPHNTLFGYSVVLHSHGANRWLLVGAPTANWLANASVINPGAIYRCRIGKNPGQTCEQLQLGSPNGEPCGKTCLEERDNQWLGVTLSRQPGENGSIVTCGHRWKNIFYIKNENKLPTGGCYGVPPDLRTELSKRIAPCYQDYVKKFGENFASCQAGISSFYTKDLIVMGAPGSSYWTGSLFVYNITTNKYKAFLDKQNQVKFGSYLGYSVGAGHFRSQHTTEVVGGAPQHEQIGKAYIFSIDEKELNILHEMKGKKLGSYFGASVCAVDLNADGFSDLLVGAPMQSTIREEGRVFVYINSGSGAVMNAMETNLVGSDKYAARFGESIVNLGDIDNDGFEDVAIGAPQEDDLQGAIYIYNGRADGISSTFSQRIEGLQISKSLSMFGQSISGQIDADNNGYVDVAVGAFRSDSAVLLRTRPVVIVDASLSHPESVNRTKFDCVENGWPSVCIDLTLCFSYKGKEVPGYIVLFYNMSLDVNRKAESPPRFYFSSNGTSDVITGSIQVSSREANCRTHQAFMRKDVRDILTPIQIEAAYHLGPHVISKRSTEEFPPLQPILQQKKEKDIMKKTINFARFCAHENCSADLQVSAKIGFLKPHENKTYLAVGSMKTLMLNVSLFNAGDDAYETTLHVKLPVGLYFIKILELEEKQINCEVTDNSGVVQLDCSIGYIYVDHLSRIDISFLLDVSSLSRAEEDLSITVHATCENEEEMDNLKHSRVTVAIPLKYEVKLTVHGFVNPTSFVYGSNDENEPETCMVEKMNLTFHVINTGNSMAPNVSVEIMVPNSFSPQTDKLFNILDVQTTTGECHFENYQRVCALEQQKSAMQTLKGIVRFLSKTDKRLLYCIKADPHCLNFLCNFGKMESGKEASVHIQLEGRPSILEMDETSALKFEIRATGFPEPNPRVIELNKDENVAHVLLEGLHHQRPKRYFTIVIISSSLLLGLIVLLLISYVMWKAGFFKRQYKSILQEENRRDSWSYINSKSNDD
T1 sequence (P05556 21-798): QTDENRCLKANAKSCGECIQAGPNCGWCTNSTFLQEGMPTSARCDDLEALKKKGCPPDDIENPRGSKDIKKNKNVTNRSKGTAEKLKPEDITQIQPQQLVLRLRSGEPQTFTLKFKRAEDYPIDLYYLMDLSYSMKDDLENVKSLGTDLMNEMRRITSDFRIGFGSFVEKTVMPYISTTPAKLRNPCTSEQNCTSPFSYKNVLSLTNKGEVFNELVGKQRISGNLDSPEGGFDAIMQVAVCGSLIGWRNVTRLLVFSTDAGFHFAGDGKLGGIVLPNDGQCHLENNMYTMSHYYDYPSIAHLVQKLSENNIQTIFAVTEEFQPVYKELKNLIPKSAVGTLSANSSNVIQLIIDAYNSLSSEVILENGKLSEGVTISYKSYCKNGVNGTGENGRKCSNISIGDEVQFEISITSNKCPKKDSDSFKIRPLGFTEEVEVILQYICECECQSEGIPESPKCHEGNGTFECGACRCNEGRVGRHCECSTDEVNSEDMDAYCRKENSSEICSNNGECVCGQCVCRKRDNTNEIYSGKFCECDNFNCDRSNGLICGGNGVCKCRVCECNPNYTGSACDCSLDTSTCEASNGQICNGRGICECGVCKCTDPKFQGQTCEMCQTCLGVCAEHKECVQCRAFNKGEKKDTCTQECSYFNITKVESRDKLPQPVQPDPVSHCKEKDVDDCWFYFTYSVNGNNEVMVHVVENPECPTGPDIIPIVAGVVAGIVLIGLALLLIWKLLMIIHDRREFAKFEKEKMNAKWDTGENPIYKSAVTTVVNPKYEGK

Substance: Manganese chloride [Mn^2+]
- increase of whole blood cell adhesion to VCAM-1 coated beads: approximately 2 fold
